Test results taken from patent US7615651B2, “Diaryl, dipyridinyl and aryl-pyridinyl derivatives and uses thereof” (Pfizer Inc., priority 2006, dated 2009).
Where two headings read alike, the source gives them in different places.

What was measured:
Format in all cases: biochemical
opioid receptor delta = biological target: T1, opioid receptor delta (Homo sapiens, UniProt P41143); experiment: GTPγ[35S] binding assay, antagonism of BW-373U86
T1 construct: expressed in transfected cells
Procedure: (§1) Membranes were prepared from cells as described (Bass et al, 1996). GTPγ[5S] binding assays were performed in a 96 well FlashPlate™ format in duplicate using […] GTPγ[^35S] and 5 μg membrane per well in assay buffer composed of 50 mM Tris HCl, pH 7.4, 5 mM MgCl2, 1 mM EDTA, 100 mM NaCl, 30 μM GDP, 0.1% bovine serum albumin and the following protease inhibitors: 100 μg/ml bacitracin, 100 μg/ml benzamidine, 5 μg/ml aprotinin, 5 μg/ml leupeptin. The assay mix was then incubated at 30° C. with increasing concentrations of antagonist (10^−10 M to 10^−5 M) for 10 minutes and challenged with the agonists BW-373U86 (1 nM), dynorphin-A (10 nM), […] (1 μM) for opioid receptors delta, kappa, and mu, respectively. The assays were performed at 30° C. for one hour. The FlashPlates were then centrifuged at 2000×g for 10 minutes. Stimulation of GTPγ[^35S] binding was then quantified using a Wallac Microbeta and Ki calculations were done using Prism™ by Graphpad.

opioid receptor kappa = biological target: T2, opioid receptor kappa (Homo sapiens, UniProt P41145); experiment: GTPγ[35S] binding assay, antagonism of dynorphin-A
T2 construct: expressed in transfected cells
T2 sequence (P41145 whole entry): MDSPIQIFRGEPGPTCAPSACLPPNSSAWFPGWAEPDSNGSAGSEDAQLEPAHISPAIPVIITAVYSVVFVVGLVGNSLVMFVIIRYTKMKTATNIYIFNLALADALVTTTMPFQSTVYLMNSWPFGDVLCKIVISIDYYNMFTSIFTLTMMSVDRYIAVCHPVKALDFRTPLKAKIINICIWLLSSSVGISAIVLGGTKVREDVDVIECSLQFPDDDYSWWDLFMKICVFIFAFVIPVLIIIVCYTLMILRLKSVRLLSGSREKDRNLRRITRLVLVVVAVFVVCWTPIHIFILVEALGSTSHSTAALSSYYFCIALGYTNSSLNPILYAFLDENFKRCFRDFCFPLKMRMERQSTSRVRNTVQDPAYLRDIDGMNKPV
Procedure: as §1

opioid receptor mu = biological target: T3, opioid receptor mu (Homo sapiens, UniProt P35372); experiment: GTPγ[35S] binding assay, antagonism of endorphin
T3 construct: expressed in transfected cells
T3 sequence (P35372 whole entry): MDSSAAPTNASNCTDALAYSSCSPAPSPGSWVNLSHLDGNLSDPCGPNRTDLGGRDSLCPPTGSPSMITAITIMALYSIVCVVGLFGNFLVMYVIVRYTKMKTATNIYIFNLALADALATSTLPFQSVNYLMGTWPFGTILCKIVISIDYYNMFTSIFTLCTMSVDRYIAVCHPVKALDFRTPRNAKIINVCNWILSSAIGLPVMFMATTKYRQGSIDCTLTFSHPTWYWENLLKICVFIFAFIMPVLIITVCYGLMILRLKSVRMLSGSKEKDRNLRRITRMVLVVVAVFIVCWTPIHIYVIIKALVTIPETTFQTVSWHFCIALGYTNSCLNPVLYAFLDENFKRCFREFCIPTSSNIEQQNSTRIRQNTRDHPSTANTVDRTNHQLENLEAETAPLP
Procedure: as §1

[1] = read-out: Delta functional Ki (GTPγ[35S] binding)
[2] = read-out: Kappa functional Ki (GTPγ[35S] binding)
[3] = read-out: Mu functional Ki (GTPγ[35S] binding)
[4] = average Ki, antagonism of dynorphin-A (10 nM) at kappa opioid receptor membranes, read-out: Kappa functional Ki (GTPγ[35S] binding)
[5] = average Ki, antagonism of endorphin (1 μM) at mu opioid receptor membranes, read-out: Mu functional Ki (GTPγ[35S] binding)
[6] = read-out: Delta functional (GTPγ[35S] binding Ki)
[7] = read-out: Kappa functional (GTPγ[35S] binding Ki)
[8] = read-out: Mu functional (GTPγ[35S] binding Ki)
[9] = average Ki, antagonism of BW-373U86 (1 nM) stimulated GTPγ[35S] binding, delta opioid receptor membranes, read-out: Delta functional (GTPγ[35S] binding Ki)
[10] = average Ki, antagonism of dynorphin-A (10 nM) stimulated GTPγ[35S] binding, kappa opioid receptor membranes, read-out: Kappa functional (GTPγ[35S] binding Ki)
[11] = average Ki, antagonism of endorphin (1 μM) stimulated GTPγ[35S] binding, mu opioid receptor membranes, read-out: Mu functional (GTPγ[35S] binding Ki)

T1 sequence (P41143 whole entry): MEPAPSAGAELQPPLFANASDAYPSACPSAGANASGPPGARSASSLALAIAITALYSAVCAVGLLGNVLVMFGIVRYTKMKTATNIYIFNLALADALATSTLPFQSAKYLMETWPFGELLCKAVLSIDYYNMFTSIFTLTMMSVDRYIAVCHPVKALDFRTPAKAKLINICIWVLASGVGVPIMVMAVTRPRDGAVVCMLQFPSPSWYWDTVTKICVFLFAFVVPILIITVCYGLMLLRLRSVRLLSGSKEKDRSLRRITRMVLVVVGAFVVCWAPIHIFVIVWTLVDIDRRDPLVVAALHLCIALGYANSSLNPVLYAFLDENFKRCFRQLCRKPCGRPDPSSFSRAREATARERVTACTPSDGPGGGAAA

| Ki (opioid receptor delta; [1]) [nM] | Ki (opioid receptor kappa; [2]) [nM] | Ki (opioid receptor mu; [3]) [nM] | Ki (opioid receptor delta; [6]) [nM] | Ki (opioid receptor kappa; [7]) [nM] | Ki (opioid receptor mu; [8]) [nM] | SMILES | also measured |
| --- | --- | --- | --- | --- | --- | --- | --- |
| 19.1 | 9.47 | 33.3 | – | – | – | Cc1cc(C(N)=O)ccc1-c1cc(F)c(CNCC2CCOCC2)c(F)c1 [4B-59] | – |
| 168 | 4.58 | 12.7 | – | – | – | NC(=O)c1ccc(-c2cc(F)c(CNCCC3CCOCC3)c(F)c2)c(Cl)c1 [4B-57] | – |
| – | – | – | – | – | – | Cc1cc(CNCCC(C)C)ccc1-c1cccc(-c2ncn[nH]2)c1 [7A-05] | Ki (opioid receptor kappa; [4]): 2.12 nM; Ki (opioid receptor mu; [5]): 0.505 nM |
| 311 | 35 | 10.3 | – | – | – | CC(C)CCNCc1ccc(-c2ccc(-c3ncn[nH]3)cc2)cc1 [7B-01] | – |
| – | – | – | 19.5 | 23.4 | 126 | Cc1cc(C(N)=O)ccc1-c1ccc(CNC(C)(C)c2ccccc2)cc1 [4B-19] | – |
| 4.02 | 1.77 | 7.3 | – | – | – | NC(=O)c1ccc(-c2ccc(CNCCC3CCOCC3)c(F)c2)c(Cl)c1 [4B-58] | – |
| – | – | – | 0.378 | 0.842 | 0.41 | NC(=O)c1ccc(-c2ccc(CNC3Cc4ccccc4C3)cc2)c(Cl)c1 [4B-30] | – |
| 1.66 | 3.71 | 0.429 | – | – | – | Cc1cc(C(N)=O)ccc1-c1c(C)cc(CNCCC(C)C)cc1Cl [4B-83] | – |
| 0.453 | 6.5 | 1.45 | – | – | – | Cc1cc(C(N)=O)ccc1-c1ccc(CNCC2CCc3ccccc3O2)cc1 (stereo not shown) [4B-36] | – |
| – | – | – | 26.3 | 4.12 | 26.1 | Cc1cc(C(N)=O)ccc1-c1ccc(CN[C@@H]2CCCc3ccccc32)cc1 [4B-28] | – |
| 28.2 | 9.25 | 1.7 | – | – | – | Cc1cc(-c2ncn[nH]2)ccc1-c1ccc(CNCCC(C)C)cc1F [7B-03] | – |
| – | – | – | 2.49 | 0.911 | 4.95 | Cc1cc(C(N)=O)ccc1-c1ccc(CN[C@@H]2CCc3ccccc32)cc1 [4B-33] | – |
| – | – | – | 355 | 278 | 295 | CC(C)CCNCc1ccc(-c2ccc(C(N)=O)c(F)c2)cc1 [4B-15] | – |
| – | – | – | – | – | – | CC(C)CCNCc1cc(F)c(-c2cc(C(N)=O)ccc2F)cc1F [1A-09] | Ki (opioid receptor delta; [9]): 16.7 nM; Ki (opioid receptor kappa; [10]): 51.1 nM; Ki (opioid receptor mu; [11]): 64.8 nM |
| 0.612 | 1.28 | 1.87 | – | – | – | NC(=O)c1ccc(-c2ccc(CNCCC3CCCC3)cc2)c(Cl)c1 [4B-39] | – |
| – | – | – | – | – | – | Cc1cc(C(N)=O)ccc1-c1c(C)cc(CNCC2CCCO2)cc1Cl (stereo not shown) [4B-91] | Ki (opioid receptor delta; average Ki, antagonism of BW-373U86 (1 nM) at delta opioid receptor membranes, read-out: Delta functional Ki (GTPγ[35S] binding)): 24.5 nM; Ki (opioid receptor kappa; [4]): 9.01 nM; Ki (opioid receptor mu; [5]): 2.22 nM |
| – | – | – | 159 | 33 | 207 | Cc1cc(C(N)=O)ccc1-c1ccc(CN2Cc3ccccc3C2)cc1 [4B-13] | – |
| 35.9 | 9.35 | 2.94 | – | – | – | NC(=O)c1cccc(-c2ccc(CN[C@H]3c4ccccc4C[C@H]3O)cc2Cl)c1 [6A-03] | – |
| – | – | – | 1.13 | 1.21 | 2.56 | Cc1cc(C(N)=O)ccc1-c1ccc(CNCc2cccc(F)c2)cc1 [4B-17] | – |
| – | – | – | – | – | – | CC(C)CCNCc1cc(F)c(-c2cccc(-c3ncn[nH]3)c2)c(F)c1 [7A-06] | Ki (opioid receptor kappa; [4]): 4.61 nM; Ki (opioid receptor mu; [5]): 2.06 nM |
| – | – | – | – | – | – | CC(C)CCNCc1ccc(-c2cc(C(N)=O)ccc2F)cc1F [1A-12] | Ki (opioid receptor delta; [9]): 17.2 nM; Ki (opioid receptor kappa; [10]): 34.9 nM; Ki (opioid receptor mu; [11]): 41.1 nM |
| 6.66 | 2.31 | 2.72 | – | – | – | Cc1cc(C(N)=O)cc(Cl)c1-c1ccc(CNCCC(C)C)cc1 [4B-49] | – |
| – | – | – | 1.82 | 6.19 | 2.73 | Cc1cc(C(N)=O)ccc1-c1ccc(CNCCc2ccccc2)cc1 [4B-09] | – |
| 0.0438 | 1.74 | 0.0895 | – | – | – | Cc1cc(C(N)=O)ccc1-c1ccc(CNC2Cc3ccccc3C2)c(OCc2ccccc2)c1 [4B-86] | – |
| 0.271 | 0.949 | 0.114 | – | – | – | CCc1cc(C(N)=O)ccc1-c1ccc(CNC2Cc3ccccc3C2)cc1C [4B-77] | – |
| 0.629 | 0.633 | 0.226 | – | – | – | NC(=O)c1ccc(-c2ccc(CNC3Cc4ccccc4C3)c(F)c2)c(Cl)c1 [4B-63] | – |
| – | – | – | 2.79 | 12.9 | 3.44 | NC(=O)c1cccc(-c2ccc(CNCCC3CCOCC3)cc2Cl)c1 [4A-08] | – |
| – | – | – | 22.7 | 400 | 1290 | Cc1cc(C(N)=O)ccc1-c1ccc(CNC2(c3ccccc3)CC2)cc1 [4B-24] | – |
